# Results published in patent publication US6737383B1, “Herbicidal oxadiazolidines” (priority 1999, dated 2004).
# Tests used:
# soybean = assay: Test B pre/postemergence soybean; format: in vivo, Glycine max
# Summary of the method: (§1)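 Herbicidal effect was estimated by eye on a ten-point control scale after plants spent twelve to sixteen days in a greenhouse following soil or foliar treatment. Foliar sprays targeted plants at one to four leaves; all doses were formulated in a non-phytotoxic solvent with surfactant.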
# pigweed = assay: Test B pre/postemergence pigweed; format: in vivo, Amaranthus retroflexus
# Summary of the method: as §1
# rice = assay: Test B flood test rice; format: in vivo, Oryza sativa
# Summary of the method: (§2)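 Read-out is a visual response score from 0 (no effect) to 10 (complete control), assigned by comparison with untreated controls. Treatment was applied at the 2-leaf stage, and plants stayed in the greenhouse for twelve to sixteen days before scoring.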
# duck salad = assay: Test B flood test duck salad; format: in vivo, Heteranthera limosa
# Summary of the method: as §2
# giant foxtail = assay: Test B pre/postemergence giant foxtail; format: in vivo, Setaria faberii
# Summary of the method: as §1
# sugar beet = assay: Test B pre/postemergence sugar beet; format: in vivo, Beta vulgaris
# Summary of the method: as §1
# crabgrass = assay: Test B pre/postemergence crabgrass; format: in vivo, Digitaria sanguinalis
# Summary of the method: as §1
# corn = assay: Test B pre/postemergence corn; format: in vivo, Zea mays
# Summary of the method: as §1
# purple nutsedge = assay: Test B pre/postemergence purple nutsedge; format: in vivo, Cyperus rotundus
# Summary of the method: as §1
# morningglory = assay: Test B pre/postemergence morningglory; format: in vivo, Ipomoea hederacea
# Summary of the method: as §1
# velvetleaf = assay: Test B pre/postemergence velvetleaf; format: in vivo, Abutilon theophrasti
# Summary of the method: as §1
# wild oat = assay: Test B pre/postemergence wild oat; format: in vivo, Avena fatua
# Summary of the method: as §1
# blackgrass = assay: Test B pre/postemergence blackgrass; format: in vivo, Alopecurus myosuroides
# Summary of the method: as §1
# surinam grass = assay: Test B pre/postemergence surinam grass; format: in vivo, Brachiaria decumbens
# Summary of the method: as §1
# bedstraw = assay: Test B pre/postemergence bedstraw; format: in vivo, Galium aparine
# Summary of the method: as §1
# wheat = assay: Test B pre/postemergence wheat; format: in vivo, Triticum aestivum
# Summary of the method: as §1
# bamyardgrass = assay: Test B flood test barnyardgrass; format: in vivo, Echinochloa crus-galli
# Summary of the method: as §2
# cocklebur = assay: Test B pre/postemergence cocklebur; format: in vivo, Xanthium strumarium
# Summary of the method: as §1
# rape = assay: Test B pre/postemergence rape; format: in vivo, Brassica napus
# Summary of the method: as §1
# smallflower flatsedge = assay: Test B flood test smallflower flatsedge; format: in vivo, Cyperus difformis
# Summary of the method: as §2
# [1] = Postemergence, Rate 125 g/ha, scale 0 to 10, 0 is no effect, 10 is complete control
# [2] = Postemergence, Rate 500 g/ha, scale 0 to 10, 0 is no effect, 10 is complete control
# [3] = Preemergence, Rate 62 g/ha, scale of 0 to 10 where 0 is no effect and 10 is complete control
# [4] = Preemergence, Rate 125 g/ha, scale 0 to 10, 0 is no effect, 10 is complete control
# [5] = Preemergence, Rate 500 g/ha, scale of 0 to 10 where 0 is no effect and 10 is complete control
# [6] = Rate 62 g/ha, Postemergence, scale 0 to 10 (0 no effect, 10 complete control)
# [7] = Rate 62 g/ha, flood test species, Pre-emergence, visual evaluation after twelve to sixteen days
# [8] = Rate 125 g/ha, under heading Pre-emergence, flood test species, visual evaluation after twelve to sixteen days
# [9] = Rate 250 g/ha, Pre-emergence (flood test species), scale 0 to 10, 0 is no effect, 10 is complete control
# [10] = Rate 500 g/ha, Pre-emergence section of Table B, 0 to 10 scale (0 no effect, 10 complete control)
# [11] = Postemergence, Rate 250 g/ha, scale 0 to 10
# [12] = Preemergence, Rate 250 g/ha, scale 0 to 10, 0 is no effect, 10 is complete control
# [13] = Preemergence, Rate 500 g/ha, scale 0 to 10, 0 is no effect, 10 is complete control
smiles,measurement,setting,value
CC(C)N(C(=O)n1oc(=O)n(CC2=NCCCO2)c1=O)c1ccccc1 [Compound 494],Soybean plant response rating,soybean; [1],0
same,"Plant response rating, Soybean",soybean; [2],1
same,"Plant response rating, Soybean",soybean; [3],0
same,Soybean plant response rating,soybean; [4],1
same,Soybean plant response rating,soybean; [5],1
same,Soybean plant response rating,soybean; [6],0
same,Redroot pigweed plant response rating,pigweed; [1],0
same,"Plant response rating, Redroot pigweed",pigweed; [2],0
same,"Plant response rating, Redroot pigweed",pigweed; [3],0
same,Redroot pigweed plant response rating,pigweed; [4],0
same,Redroot pigweed plant response rating,pigweed; [5],0
same,Redroot pigweed plant response rating,pigweed; [6],0
same,"Plant response rating, Rice (0 to 10 scale, 0 is no effect, 10 is complete control)",rice; [7],0
same,"Rice plant response rating (0 to 10 scale, 0 is no effect, 10 is complete control)",rice; [8],0
same,Rice plant response rating,rice; [9],0
same,Rice plant response rating,rice; [10],0
same,"Plant response rating, Ducksalad (0 to 10 scale, 0 is no effect, 10 is complete control)",duck salad; [7],0
same,"Ducksalad plant response rating (0 to 10 scale, 0 is no effect, 10 is complete control)",duck salad; [8],0
same,Ducksalad plant response rating,duck salad; [9],0
same,Ducksalad plant response rating,duck salad; [10],0
same,Giant foxtail plant response rating,giant foxtail; [1],0
same,"Plant response rating, Giant foxtail",giant foxtail; [2],0
same,"Plant response rating, Giant foxtail",giant foxtail; [3],0
same,Giant foxtail plant response rating,giant foxtail; [4],0
same,Giant foxtail plant response rating,giant foxtail; [5],0
same,Giant foxtail plant response rating,giant foxtail; [6],0
same,Sugarbeets plant response rating,sugar beet; [1],0
same,"Plant response rating, Sugarbeets",sugar beet; [2],0
same,"Plant response rating, Sugarbeets",sugar beet; [3],0
same,Sugarbeets plant response rating,sugar beet; [4],0
same,Sugarbeets plant response rating,sugar beet; [5],0
same,Sugarbeets plant response rating,sugar beet; [6],0
same,Crabgrass plant response rating,crabgrass; [1],0
same,"Plant response rating, Crabgrass",crabgrass; [3],0
same,Crabgrass plant response rating,crabgrass; [4],0
same,Crabgrass plant response rating,crabgrass; [5],0
same,Crabgrass plant response rating,crabgrass; [6],0
same,Corn plant response rating,corn; [1],0
same,Corn plant response rating,corn; [11],0
same,"Plant response rating, Corn",corn; [2],0
same,"Plant response rating, Corn",corn; [3],0
same,Corn plant response rating,corn; [4],0
same,Corn plant response rating,corn; [5],0
same,Corn plant response rating,corn; [6],0
same,Nutsedge plant response rating,purple nutsedge; [1],0
same,"Plant response rating, Nutsedge",purple nutsedge; [2],0
same,"Plant response rating, Nutsedge",purple nutsedge; [3],0
same,Nutsedge plant response rating,purple nutsedge; [4],0
same,Nutsedge plant response rating,purple nutsedge; [5],0
same,Nutsedge plant response rating,purple nutsedge; [6],0
same,Morningglory plant response rating,morningglory; [1],0
same,"Plant response rating, Morningglory",morningglory; [2],0
same,"Plant response rating, Morningglory",morningglory; [3],0
same,Morningglory plant response rating,morningglory; [4],0
same,Morningglory plant response rating,morningglory; [5],0
same,Morningglory plant response rating,morningglory; [6],0
same,Velvetleaf plant response rating,velvetleaf; [1],0
same,"Plant response rating, Velvetleaf",velvetleaf; [2],0
same,"Plant response rating, Velvetleaf",velvetleaf; [3],0
same,Velvetleaf plant response rating,velvetleaf; [4],0
same,Velvetleaf plant response rating,velvetleaf; [5],0
same,Velvetleaf plant response rating,velvetleaf; [6],0
same,Wild oats plant response rating,wild oat; [1],0
same,"Plant response rating, Wild oats",wild oat; [2],0
same,"Plant response rating, Wild oats",wild oat; [3],0
same,Wild oats plant response rating,wild oat; [4],0
same,Wild oats plant response rating,wild oat; [5],0
same,Wild oats plant response rating,wild oat; [6],0
same,Blackgrass plant response rating,blackgrass; [1],0
same,Blackgrass plant response rating,blackgrass; [11],0
same,"Plant response rating, Blackgrass",blackgrass; [2],0
same,"Plant response rating, Blackgrass",blackgrass; [3],0
same,Blackgrass plant response rating,blackgrass; [4],0
same,Blackgrass plant response rating,blackgrass; [12],0
same,Blackgrass plant response rating,blackgrass; [5],0
same,Blackgrass plant response rating,blackgrass; [6],0
same,B. signalgrass plant response rating,surinam grass; [1],0
same,B. signalgrass plant response rating,"surinam grass; Postemergence, Rate 250 g/ha, scale 0 to 10, 0 no effect, 10 complete control",0
same,"Plant response rating, B. signalgrass",surinam grass; [2],0
same,"Plant response rating, B. signalgrass",surinam grass; [3],0
same,B. signalgrass plant response rating,surinam grass; [4],0
same,B. signalgrass plant response rating,surinam grass; [12],0
same,B. signalgrass plant response rating,surinam grass; [13],0
same,B. signalgrass plant response rating,surinam grass; [6],0
same,"Plant response rating, Bedstraw",bedstraw; [3],0
same,Bedstraw plant response rating,bedstraw; [4],0
same,Bedstraw plant response rating,bedstraw; [12],0
same,Bedstraw plant response rating,bedstraw; [13],0
same,Bedstraw plant response rating,bedstraw; [6],0
same,Wheat plant response rating,wheat; [1],0
same,"Plant response rating, Wheat",wheat; [2],0
same,"Plant response rating, Wheat",wheat; [3],0
same,Wheat plant response rating,wheat; [4],0
same,Wheat plant response rating,wheat; [5],0
same,Wheat plant response rating,wheat; [6],0
same,"Plant response rating, Barnyardgrass (0 to 10 scale, 0 is no effect, 10 is complete control)",bamyardgrass; [7],0
same,"Barnyardgrass plant response rating (0 to 10 scale, 0 is no effect, 10 is complete control)",bamyardgrass; [8],0
same,Barnyardgrass plant response rating,bamyardgrass; [9],0
same,Barnyardgrass plant response rating,bamyardgrass; [10],0
same,Cocklebur plant response rating,cocklebur; [1],0
same,Cocklebur plant response rating,cocklebur; [11],0
same,"Plant response rating, Cocklebur",cocklebur; [2],0
same,"Plant response rating, Cocklebur",cocklebur; [3],0
same,Cocklebur plant response rating,cocklebur; [4],0
same,Cocklebur plant response rating,cocklebur; [12],0
same,Cocklebur plant response rating,cocklebur; [5],0
same,Cocklebur plant response rating,cocklebur; [6],0
same,Rape plant response rating,rape; [1],0
same,"Plant response rating, Rape",rape; [2],0
same,"Plant response rating, Rape",rape; [3],0
same,Rape plant response rating,rape; [4],0
same,Rape plant response rating,rape; [5],0
same,Rape plant response rating,rape; [6],0
same,"Plant response rating, S. Flatsedge (0 to 10 scale, 0 is no effect, 10 is complete control)",smallflower flatsedge; [7],0
same,"S. Flatsedge plant response rating (0 to 10 scale, 0 is no effect, 10 is complete control)",smallflower flatsedge; [8],0
same,S. Flatsedge plant response rating,smallflower flatsedge; [9],0
same,S. Flatsedge plant response rating,smallflower flatsedge; [10],0
